Experimental data published in patent US20070197435A1, “Process for the synchronization of ovulation for timed breeding without heat detection” (priority 2006, published 2007).

Tests used:
[1] = tested on: ovariectomized estrogen primed gilt model; assay: Dose response study of deslorelin in SAIB, LH release determined by RIA; assay type: in vivo, swine; conditions: single injection of 50 mcg deslorelin in SAIB
Protocol: A dose response study was performed using deslorelin in SAIB in an ovariectomized estrogen primed gilt model (Barb, et al. (1999) Proceed. Int'l. Symp. Control. Rel. Bioact. Mater., 26).

mature postpartum sows = assay: Intravulvar deslorelin at estrus detection, estrus length, pregnancy rate and live piglets; assay type: in vivo, swine; conditions: 50 μg deslorelin acetate intravulvar at first estrus detection
Protocol: Sows were assigned randomly in blocks of two to either control or to be injected intravulvar with 50 mcg of deslorelin in SAIB at the time of estrus detection for sows first detected in estrus in the a.m. and 12 hours later for those first detected in estrus in the p.m. Treated animals were bred Al upon detected estrus and again 24 hours later if still in estrus. Controls received a saline injection on first detected estrus behavior estrus detection and were bred according to the farm's normal procedures. Saline sows bred at detected estrus consistent with farm sows. Deslorelin sows injected intravulvar with 1 ml (50 μg deslorelin acetate) at first estrus detection and AI, then AI again if in estrus the next day. Live piglet number 0.6>in Deslorelin versus Saline sows.

SMILES: CCNC(=O)[C@@H]1CCCN1C(=O)[C@H](CCCN=C(N)N)NC(=O)[C@H](CC(C)C)NC(=O)[C@@H](Cc1c[nH]c2ccccc12)NC(=O)[C@H](Cc1ccc(O)cc1)NC(=O)[C@H](CO)NC(=O)[C@H](Cc1c[nH]c2ccccc12)NC(=O)[C@H](Cc1cnc[nH]1)NC(=O)[C@@H]1CCC(=O)N1 [Deslorelin, deslorelin]
- Time by which LH returned to base level [1]: ≤ 18 h
- Live piglet number, greater in Deslorelin versus Saline sows (per litter) (mature postpartum sows): 0.6
